Reference: PubChem BioAssay (NCI)
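Grown in 96-well plates, cells were treated for 48 hours with each compound at five concentrations. Insufficient inhibition: endpoint recorded as highest concentration tested. GI50 = concentration required for 50% inhibition of growth. At the TGI there is no net growth.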

Key:
Assay in all cases: NCI-60 cell line screen, 48 h
[1] = test system: SK-OV-3 ovarian
[2] = test system: UO-31 renal
[3] = test system: M14 melanoma
[4] = test system: HT29 colon
[5] = test system: RPMI-8226 leukemia
[6] = test system: SR leukemia
[7] = test system: UACC-62 melanoma
[8] = test system: IGROV1 ovarian
[9] = test system: HCT-15 colon
[10] = test system: HS 578T breast
[11] = test system: MCF7 breast
[12] = test system: CCRF-CEM leukemia
[13] = test system: BT-549 breast
[14] = test system: MDA-MB-231 breast
[15] = test system: SF-268 CNS
[16] = test system: SN12C renal
[17] = test system: DU-145 prostate
[18] = test system: SW-620 colon
[19] = test system: COLO 205 colon
[20] = test system: NCI/ADR-RES ovarian
[21] = test system: PC-3 prostate
[22] = test system: NCI-H460 lung
[23] = test system: SNB-75 CNS
[24] = test system: NCI-H23 lung
[25] = test system: A498 renal
[26] = test system: NCI-H522 lung
[27] = test system: KM12 colon
[28] = test system: HOP-62 NSCLC
[29] = test system: LOX IMVI melanoma
[30] = test system: SK-MEL-5 melanoma
[31] = test system: EKVX NSCLC
[32] = test system: UACC-257 melanoma
[33] = test system: TK-10 renal
[34] = test system: HCT-116 colon
[35] = test system: MOLT-4 leukemia
[36] = test system: HCC-2998 colon
[37] = test system: ACHN renal
[38] = test system: 786-0 renal
[39] = test system: OVCAR-4 ovarian
[40] = test system: SK-MEL-28 melanoma
[41] = test system: OVCAR-5 ovarian
[42] = test system: SF-295 CNS
[43] = test system: SNB-19 CNS
[44] = test system: NCI-H226 lung
[45] = test system: U251 CNS
[46] = test system: OVCAR-8 ovarian
[47] = test system: K-562 leukemia

COC(=O)[C@@H](C)C[C@H](Cc1ccc2ccccc2c1)NC(=O)c1csc([C@@H](C[C@H](C(C)C)N(C)C(=O)[C@@H](NC(=O)[C@H]2CCCCN2C)C(C)C)OC(C)=O)n1
GI50 [1]: 48 nM
TGI [1]: > 25000 nM
GI50 [2]: 286 nM
TGI [2]: 5180 nM
GI50 [3]: 12.9 nM
TGI [3]: 4290 nM
GI50 [4]: 8.29 nM
TGI [4]: 4520 nM
GI50 [5]: 9.32 nM
TGI [5]: 5990 nM
GI50 [6]: 2.5 nM
TGI [6]: 3570 nM
GI50 [7]: 9.95 nM
TGI [7]: 7780 nM
GI50 [8]: 18.3 nM
TGI [8]: > 25000 nM
GI50 [9]: 52.2 nM
TGI [9]: > 25000 nM
GI50 [10]: 12.2 nM
TGI [10]: > 25000 nM
GI50 [11]: 6.99 nM
TGI [11]: 9210 nM
GI50 [12]: 10.3 nM
TGI [12]: > 25000 nM
GI50 [13]: 13 nM
TGI [13]: 374 nM
GI50 [14]: 20.6 nM
TGI [14]: 7170 nM
GI50 [15]: 21 nM
TGI [15]: > 25000 nM
GI50 [16]: 47 nM
TGI [16]: > 25000 nM
GI50 [17]: 9.84 nM
TGI [17]: > 25000 nM
GI50 [18]: 14.7 nM
TGI [18]: > 25000 nM
GI50 [19]: 16 nM
TGI [19]: 282 nM
GI50 [20]: 614 nM
TGI [20]: > 25000 nM
GI50 [21]: 10.6 nM
TGI [21]: 7770 nM
GI50 [22]: 11.8 nM
TGI [22]: > 25000 nM
GI50 [23]: 5.24 nM
TGI [23]: > 25000 nM
GI50 [24]: 28.1 nM
TGI [24]: > 25000 nM
GI50 [25]: 74.5 nM
TGI [25]: > 25000 nM
GI50 [26]: 5.61 nM
TGI [26]: 6030 nM
GI50 [27]: 11 nM
TGI [27]: > 25000 nM
GI50 [28]: 22.1 nM
TGI [28]: > 25000 nM
GI50 [29]: 13 nM
TGI [29]: 4780 nM
GI50 [30]: 12.2 nM
TGI [30]: 1420 nM
GI50 [31]: 41.8 nM
TGI [31]: > 25000 nM
GI50 [32]: 4130 nM
TGI [32]: 9420 nM
GI50 [33]: 8800 nM
TGI [33]: > 25000 nM
GI50 [34]: 8.65 nM
TGI [34]: 13000 nM
GI50 [35]: 11.5 nM
TGI [35]: 7540 nM
GI50 [36]: 52.9 nM
TGI [36]: 21600 nM
GI50 [37]: 164 nM
TGI [37]: 4590 nM
GI50 [38]: 9.94 nM
TGI [38]: 5080 nM
GI50 [39]: 129 nM
TGI [39]: > 25000 nM
GI50 [40]: 2700 nM
TGI [40]: 6600 nM
GI50 [41]: 62.9 nM
TGI [41]: > 25000 nM
GI50 [42]: 10.7 nM
TGI [42]: > 25000 nM
GI50 [43]: 15.3 nM
TGI [43]: > 25000 nM
GI50 [44]: 7110 nM
TGI [44]: > 25000 nM
GI50 [45]: 12.8 nM
TGI [45]: 10700 nM
GI50 [46]: 44.5 nM
TGI [46]: > 25000 nM
GI50 [47]: 7.06 nM
TGI [47]: 8760 nM
